From patent publication US20100292231A1, “Indazole Compounds for Treating Inflammatory Disorders, Demyelinating Disorders and Cancers” (priority 2007, published 2010)

What was measured:
[1] = test system: PC-3 (prostate cancer) cell line; test: sulforhodamine B (SRB) cytotoxicity assay; type: cell-based; settings: Homo sapiens, PC-3, 72 h; 100 μM highest concentration, diluted 1:5; 3 day incubation; read-out: IC50 Measured Against PC-3 Cell Line
Experimental: (§1) The cytotoxic activity of compounds listed in Table 5 was determined with a sulforhodamine B (SRB) assay on panel of cell lines, including MdaMb231 (breast cancer), MV4-11 (leukemia), PC-3 (prostate cancer), U266B1 (multiple myeloma), C7 macrophages, and Raw264.7 (murine macrophage-like cells).
(§2) Cells growing in relevant media were seeded in a 96 well plate and left to adhere overnight. Cells were plated at appropriate cell densities: • MV4-11: 20.000 cells/well • Mda-Mb231: 6000 cells/well • C7: 10.000 cells/well • Raw264.7: 2000 cells/well • PC-3: 6000 cells/well • U266B1: 40.000 cells/well.
(§3) Cells were incubated before the compounds were added the next day to a top concentration of 100 μM and serially diluted 1 in 5 across the plate. After a 3 day incubation period (6 days for C7 and Raw264.7) cells were fixed with trichloroacetic acid (TCA) to end concentration of 10% for adherent cells and 16% end concentration for suspension cells for 1 hr at 4° C. before washing. Cells were stained with 0.4% sulforhodamine-B dye (SRB) in 1% acetic acid for 30 minutes and washed in 1% acetic acid. To solubilize the dye 100 μl 10 mM Tris, pH 10.5 was added and the absorbance was read at 564 nm. IC50 values were generated using the SoftMAX Pro™ software. The data is presented below in Tables 6 through 11.

[2] = test system: U266B1 (multiple myeloma) cell line; test: sulforhodamine B (SRB) cytotoxicity assay; type: cell-based; settings: 72 h, 100 μM highest concentration, diluted 1:5, 3 day incubation, read-out: IC50 Measured Against U266B1 Cell Line
Experimental: as §1, §2, §3

FLT3 = molecular target: T1, FLT3 (Homo sapiens, UniProt P36888); test: Kinase EC50 (10 pt curve or estimate, ATP Kmapp); type: biochemical; settings: from 10 pt curve or estimate based on 1 μm inhibition assay at ATP Kmapp
T1 construct: purchased Invitrogen (SelectScreen platform)
T1 sequence (P36888 27-993): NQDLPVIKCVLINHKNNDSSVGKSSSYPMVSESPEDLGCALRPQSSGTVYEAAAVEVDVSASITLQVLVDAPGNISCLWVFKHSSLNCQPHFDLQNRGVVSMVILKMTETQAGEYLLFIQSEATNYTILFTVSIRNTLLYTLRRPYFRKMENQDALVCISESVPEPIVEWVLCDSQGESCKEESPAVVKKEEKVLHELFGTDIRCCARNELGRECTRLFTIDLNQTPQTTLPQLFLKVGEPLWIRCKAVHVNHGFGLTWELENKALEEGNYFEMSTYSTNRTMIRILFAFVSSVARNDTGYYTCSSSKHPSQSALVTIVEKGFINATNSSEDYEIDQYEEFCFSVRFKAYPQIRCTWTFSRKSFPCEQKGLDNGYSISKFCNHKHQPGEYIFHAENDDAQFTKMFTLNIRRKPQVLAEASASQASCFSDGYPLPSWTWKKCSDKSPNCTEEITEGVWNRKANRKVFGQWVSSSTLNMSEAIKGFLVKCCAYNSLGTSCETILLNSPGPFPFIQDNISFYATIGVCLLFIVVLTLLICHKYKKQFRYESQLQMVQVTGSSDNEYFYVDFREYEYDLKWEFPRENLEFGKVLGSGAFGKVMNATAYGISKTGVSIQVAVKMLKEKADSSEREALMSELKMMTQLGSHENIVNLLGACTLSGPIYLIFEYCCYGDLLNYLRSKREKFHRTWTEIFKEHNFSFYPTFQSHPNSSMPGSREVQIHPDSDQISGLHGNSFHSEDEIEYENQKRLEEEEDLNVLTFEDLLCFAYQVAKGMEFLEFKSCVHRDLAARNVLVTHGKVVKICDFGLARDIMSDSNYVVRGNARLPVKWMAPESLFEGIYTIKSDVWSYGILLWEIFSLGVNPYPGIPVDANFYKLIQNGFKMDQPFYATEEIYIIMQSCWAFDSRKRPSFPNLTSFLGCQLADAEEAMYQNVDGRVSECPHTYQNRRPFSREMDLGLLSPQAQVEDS

C7 macrophages = test: sulforhodamine B (SRB) cytotoxicity assay; type: cell-based; settings: Macrophage, 144 h; 5 μM highest concentration, diluted 1:4; 6 day assay; read-out: IC50 Measured Against C7 Cell Line (6 day assay)
Experimental: as §1, §2, §3

| EC50 (FLT3) [nM] | Compound | IC50 [1] [nM] | IC50 [2] [nM] | IC50 (C7 macrophages) [nM] |
| --- | --- | --- | --- | --- |
| 11 | O=c1c2c(NCCCN3CCOCC3)ccc3ncn(c4ccc5[nH]ncc5c14)c32 [(X)] | 17300 | 7060 | – |
| 5 | CN(C)CCNc1ccc2ncn3c4ccc5[nH]ncc5c4c(=O)c1c23 [(XII)] | – | 6110 | – |
| 9 | CC(CCN1CCOCC1)Nc1ccc2ncn3c4ccc5[nH]ncc5c4c(=O)c1c23 (stereo not shown) [(XVI)] | 8920 | 14500 | – |
| 15 | CN1CCN(CCCNc2ccc3ncn4c5ccc6[nH]ncc6c5c(=O)c2c34)CC1 [(XVII)] | 9650 | – | 360 |
| 14 | CN(C)CCCNc1ccc2ncn3c4ccc5[nH]ncc5c4c(=O)c1c23 [Compound (IV)] | 2970 | 6940 | – |
| 11 | CCN(CC)CCCNc1ccc2ncn3c4ccc5[nH]ncc5c4c(=O)c1c23 [Compound (XV)] | 32800 | – | 13 |

| Compound | EC50 (FLT3) [nM] | IC50 [1] [nM] | IC50 [2] [nM] | IC50 (C7 macrophages) [nM] |
| --- | --- | --- | --- | --- |
| CCN(CC)CCNc1ccc2ncn3c4ccc(O)cc4c(=O)c1c23 [Symadex, 5-(2-(diethylamino)ethylamino)-8-hydroxy-6H-imidazo[4,5,1-de]acridin-6-one, reference compound] | 40 | – | – | 15 |
